Test results as given in patent US9433683B2, “Reversible pegylated drugs” (Yeda Research and Development Co., Ltd., priority 2003, dated 2016).
Where a SMILES comes first, the peptide text is derived from it.

Experiments:
[1] = Solubility in aqueous buffer; type: physicochemical; settings: pH 7.2, aqueous buffer
[2] = Stability of the maleimide moiety of MAL-FMS-NHS in aqueous solutions (GSH/DTNB); type: physicochemical
Description: MAL-FMS-NHS (1 mM) was incubated at room temperature in H2O (pH 6.0), in 0.007 M acetic acid (pH˜4.0), in 0.1 M phosphate buffer (pH 7.4), and in 0.1 M NaHCO3 (pH 8.5). At the indicated time points, aliquots were allowed to react with a slight excess of GSH (15 min at pH 7.2) and the concentration of unreacted GSH was determined with 5,5-dithiobis(2-nitrobenzoic acid) (DTNB).
Stability of the MAL-functional moiety in aqueous solutions. In order to test the stability of the maleimide function of MAL-FMS-NHS in aqueous solutions at different pH values, MAL-FMS-NHS (1 mM) was incubated at room temperature in water (pH 6.0), in 0.007M acetic acid (pH˜4.0), in 0.1M phosphate buffer (pH 7.4), and in 0.1M NaHCO3 (pH 8.5). At several time points, aliquots were allowed to react with a slight excess of reduced glutathione (GSH) (15 min at pH 7.2) and the concentration of unreacted GSH was determined with DTNB (5,5′-dithio-bis-2-nitrobenzoic acid, Ellman's reagent), by measuring the absorbance of the produced yellow colored 5-thio-2-nitrobenzoic acid (TNB) at 405 or 412 nm.

physchem = settings: buffer, pH 8.5

## O=C(CCN1C(=O)C=CC1=O)Nc1ccc2c(c1)C(COC(=O)ON1C(=O)CCC1=O)c1cc(S(=O)(=O)O)ccc1-2 (centres unmarked) [MAL-FMS-NHS, N-[2-(maleimido-propionylamino)-7-sulfo-fluoren-9-yl-methoxycarbonyloxy]-succinimide]
[1]
  solubility: > 10000 µg/mL
[2]; 0.1 M NaHCO3 aqueous solution, 0.1M NaHCO3 pH 8.5, room temperature, read-out: t1/2 of destruction of the maleimide moiety (converted)
  half-life at 1 mM: 2.7 ± 0.3 h
[2]; pH 4 to 6, over a day or two
  stability of the maleimide function: fully stable
[2]; pH 7.2
  stability of the maleimide function: stable over a period of several hours

## CC[C@H](C)[C@H](NC(=O)[C@H](CCC(=O)O)NC(=O)[C@H](C)NC(=O)OCC1c2cc(NC(=O)CCN3C(=O)C=CC3=O)ccc2-c2ccc(S(=O)(=O)O)cc21)C(=O)N[C@@H](CO)C(=O)NCC(=O)N[C@@H](CCC(N)=O)C(=O)N[C@@H](CC(C)C)C(=O)N[C@@H](CO)C(=O)N[C@@H](Cc1ccc(O)cc1)C(=O)N[C@H](C(=O)N[C@@H](CCCNC(=N)N)C(=O)N[C@@H](CC(=O)O)C(=O)N[C@H](C(=O)N[C@@H](CC(N)=O)C(=O)N[C@@H](CO)C(=O)N[C@@H](Cc1c[nH]c2ccccc12)C(=O)N[C@@H](CCC(N)=O)C(=O)N[C@@H](Cc1c[nH]cn1)C(=O)N[C@H](C(=O)N[C@@H](Cc1c[nH]c2ccccc12)C(=O)N[C@H](C(=O)N[C@@H](CC(N)=O)C(=O)N[C@H](C(=O)N[C@@H](CO)C(=O)N[C@H](C(=O)N[C@@H](CCC(=O)O)C(=O)N[C@@H](CC(N)=O)C(=O)O)[C@@H](C)CC)C(C)C)[C@@H](C)O)[C@@H](C)CC)C(C)C)C(C)C (some centres unmarked) [Mal-FMS-Peptide 27] (HELM PEPTIDE1{[O=C1C=CC(=O)N1CCC(=O)[*:2]].[O=C(OCC1c2cc(N[*:1])ccc2-c2ccc(S(=O)(=O)O)cc21)[*:2]].A.E.I.S.G.Q.L.S.Y.V.R.D.V.N.S.W.Q.H.I.W.T.N.V.S.I.E.N}$$$$V2.0; N-terminus and C-terminus assumed)
physchem
  half-life: 8.4 h
